The results in this text go back to patent US8575091B1, “Amylin analogues and pharmaceutical compositions thereof” (Novo Nordisk A/S, priority 2012, dated 2013).

Where two headings read alike, the source gives them in different places. Numbered stars: 1 amine (or outer) side, 2 acyl side, 3 side chain; on linkers, the order of the positions; unused ones are H or OH. Bridge positions count the residues as written; N and C are the ends. Side chains are listed from the residue outwards. Peptide text beside a SMILES is read from it. * marks the point of attachment. C20 diacid = O=C(O)CCCCCCCCCCCCCCCCCCC(=O)*; γGlu = O=C(O)[C@H](CCC(=O)[*:2])N[*:1]

In experiment [1] the target is T1, human calcitonin receptor (Homo sapiens, UniProt P30988).
T1 construct: expressed in transfected cells
T1 sequence (P30988 25-474): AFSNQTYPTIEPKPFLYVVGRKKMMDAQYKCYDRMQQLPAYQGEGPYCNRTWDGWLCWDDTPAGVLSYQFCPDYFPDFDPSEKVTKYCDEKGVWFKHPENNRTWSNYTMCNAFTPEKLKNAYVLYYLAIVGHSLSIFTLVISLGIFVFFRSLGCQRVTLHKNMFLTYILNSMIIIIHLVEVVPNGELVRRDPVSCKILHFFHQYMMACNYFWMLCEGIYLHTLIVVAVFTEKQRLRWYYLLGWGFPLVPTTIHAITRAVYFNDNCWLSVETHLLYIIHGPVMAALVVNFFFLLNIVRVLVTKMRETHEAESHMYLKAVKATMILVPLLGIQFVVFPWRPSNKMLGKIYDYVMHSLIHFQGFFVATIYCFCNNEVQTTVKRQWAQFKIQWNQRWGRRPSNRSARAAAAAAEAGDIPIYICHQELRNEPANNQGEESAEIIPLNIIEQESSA
In words: Assay (VII) binding to the human calcitonin receptor (SPA, 125I-Calcitonin).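 Also: cell membranes coupled to SPA beads, competitive displacement read by scintillation counting, IC50 derived from a one-site competition fit as a measure of receptor affinity.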 Particulars: read-out: hCTR bind IC50.

In experiment [2] the target is T2, human amylin receptor (amylin 3(a) receptor: human calcitonin receptor + RAMP-3) (Homo sapiens, UniProt O60896+P30988).
T2 construct: expressed in transfected cells
T2 sequence (P30988 25-474): T1 sequence (P30988 25-474)
T2 sequence (O60896 24-148 partner): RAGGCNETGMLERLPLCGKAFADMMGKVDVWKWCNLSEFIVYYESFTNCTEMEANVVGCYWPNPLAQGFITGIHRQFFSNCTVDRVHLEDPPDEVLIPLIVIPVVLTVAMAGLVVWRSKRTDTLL
In words: Assay (II)a functional assay, human amylin receptor (CRE luciferase, BHK cells). The format is cell-based. The following applies: for EC50: read-out: hAmylin-R funct. EC50.

A further experiment deals with T3, human amylin receptor (Homo sapiens, UniProt O60896+P30988).
T3 construct: expressed in transfected cells
T3 sequence (P30988 25-474): T1 sequence (P30988 25-474)
T3 sequence (O60896 24-148 partner): T2 sequence (O60896 24-148 partner)
In words: Assay (V) binding to the human amylin receptor (SPA, 125I-rat amylin). The following applies: for IC50: human amylin receptor membranes, SPA, read-out: hAmylin-R bind IC50; for Ratio hCT/hAmylin binding: human binding ratio, included for comparison. Summed up: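 IC50, taken as receptor affinity, came from one-site binding competition analysis of scintillation proximity counts. Amylin 3(a)/CRE-luc cell membranes (35 ng/μL final) were mixed with SPA beads (0.05 mg/well) in 50 mM Hepes pH 7.4 containing CaCl2, MgCl2, 0.1% OA and 0.02% Tween20.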

The target in experiment [3] is T1, human calcitonin receptor. Put plainly: Assay (II)a functional assay, human calcitonin receptor (CRE luciferase, BHK cells).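 Also: luminescence from a CRE-driven luciferase reporter, read by single photon counting after cells were exposed to test samples for 3 h at 37 °C under 5% CO2.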 The format is cell-based. The following applies: read-out: hCTR funct. EC50.
The mark [4] stands for this setting: Table 6, human functional selectivity (hCTR EC50 / hAmylin-R EC50).
[5] abbreviates: Table 6a, human functional selectivity (hCTR EC50 / hAmylin-R EC50), at least 5.
Setting [6] is: Table 6i, hCTR funct. EC50 / hAmylin-R funct. EC50.
Where [7] appears, read: Table 6i, human amylin receptor functional.
Where [8] appears, read: Table 6j, hCTR funct. EC50 / hAmylin-R funct. EC50.

Broadly, the IC50 is the point on the concentration scale where inhibition reaches its midpoint. Consider `CC(C)C[C@H](NC(=O)[C@H](CCCNC(=N)N)NC(=O)[C@H](CCC(N)=O)NC(=O)[C@@H](NC(=O)[C@H](C)NC(=O)[C@@H]1CSSC[C@H](NC(=O)[C@@H](N)CCCCNC(=O)CC[C@H](NC(=O)CC[C@H](NC(=O)CCCCCCCCCCCCCCCCCCC(=O)O)C(=O)O)C(=O)O)C(=O)N[C@@H](CC(N)=O)C(=O)N[C@@H]([C@@H](C)O)C(=O)N[C@@H](C)C(=O)N[C@@H]([C@@H](C)O)C(=O)N1)[C@@H](C)O)C(=O)N[C@@H](C)C(=O)N[C@@H](CC(=O)O)C(=O)N[C@@H](Cc1ccccc1)C(=O)N[C@@H](CC(C)C)C(=O)N[C@@H](CCCNC(=N)N)C(=O)N[C@@H](Cc1c[nH]cn1)C(=O)N[C@@H](CO)C(=O)N[C@@H](CO)C(=O)N[C@@H](CC(N)=O)C(=O)N1CCC[C@H]1C(=O)N[C@@H](Cc1ccccc1)C(=O)NCC(=O)N[C@@H](C)C(=O)N1CCC[C@H]1C(=O)N[C@@H](CC(C)C)C(=O)N[C@@H](CO)C(=O)N[C@@H](CO)C(=O)N[C@H](C(=O)N[C@@H](CC(N)=O)C(=O)N[C@H](C(=O)NCC(=O)N[C@@H](CO)C(=O)N[C@@H](CC(=O)O)C(=O)N[C@H](C(=O)N[C@@H](Cc1ccc(O)cc1)C(N)=O)[C@@H](C)O)C(C)C)[C@@H](C)O` [Example 3] (H-K([γGlu-γGlu-C20 diacid])CNTATCATQRLADFLRHSSNPFGAPLSSTNVGSDTY-NH2; disulfide 2-7), for which the IC50 in experiment [1] came out at 19500 pM; at human amylin receptor, 1130 pM. For the same compound, the “Ratio hCT/hAmylin funct.” value in experiment [2] (setting [4]) and in experiment [2] (setting [5]) was 6.7 throughout.

A word on the EC50: it is the midpoint of the concentration-response curve. For `CC[C@H](C)[C@H](NC(=O)[C@H](C)NC(=O)CNC(=O)[C@H](Cc1ccccc1)NC(=O)[C@H](CC(N)=O)NC(=O)[C@@H]1CCCN1C(=O)[C@H](CO)NC(=O)[C@H](CO)NC(=O)[C@H](Cc1c[nH]cn1)NC(=O)[C@H](CCCNC(=N)N)NC(=O)[C@H](CC(C)C)NC(=O)[C@H](Cc1ccccc1)NC(=O)[C@H](CCC(=O)O)NC(=O)[C@H](C)NC(=O)[C@H](CC(C)C)NC(=O)[C@H](CCCNC(=N)N)NC(=O)[C@H](CCC(N)=O)NC(=O)[C@@H](NC(=O)[C@H](C)NC(=O)[C@@H]1CSSC[C@H](NC(=O)[C@H](CCCCN)NC(=O)CC[C@H](NC(=O)CCCCCCCCCCCCCCCCCCC(=O)O)C(=O)O)C(=O)N[C@@H](CC(N)=O)C(=O)N[C@@H]([C@@H](C)O)C(=O)N[C@@H](C)C(=O)N[C@@H]([C@@H](C)O)C(=O)N1)[C@@H](C)O)C(=O)N1CCC[C@H]1C(=O)N[C@@H](CO)C(=O)N[C@@H](CO)C(=O)N[C@H](C(=O)N[C@@H](CC(N)=O)C(=O)N[C@H](C(=O)NCC(=O)N[C@@H](CO)C(=O)N[C@@H](CC(N)=O)C(=O)N[C@H](C(=O)N[C@@H](Cc1ccc(O)cc1)C(N)=O)[C@@H](C)O)C(C)C)[C@@H](C)O` [Example 9], the IC50 in experiment [1] was 1140 pM; at human amylin receptor, 143 pM. Further, the “Ratio hCT/hAmylin funct.” value in experiment [2] (setting [4]), in experiment [2] (setting [5]), in experiment [2] (setting [6]) and in experiment [2] (setting [8]) was 7.4 throughout. In addition, the EC50 came to 175 pM in experiment [2] (setting [7]) and 1290 pM in experiment [3]. Also, the “Ratio hCT/hAmylin binding” value on human amylin receptor amounted to 8.0.

As to `CC[C@H](C)[C@H](NC(=O)[C@H](C)NC(=O)CNC(=O)[C@H](Cc1ccccc1)NC(=O)[C@H](CC(N)=O)NC(=O)[C@@H]1CCCN1C(=O)[C@H](CO)NC(=O)[C@H](CO)NC(=O)[C@H](Cc1c[nH]cn1)NC(=O)[C@H](CCCNC(=N)N)NC(=O)[C@H](CC(C)C)NC(=O)[C@H](Cc1ccccc1)NC(=O)[C@H](CCC(=O)O)NC(=O)[C@H](C)NC(=O)[C@H](CC(C)C)NC(=O)[C@H](CCCNC(=N)N)NC(=O)[C@H](CCC(N)=O)NC(=O)[C@@H](NC(=O)[C@H](C)NC(=O)[C@@H]1CSSC[C@H](NC(=O)[C@H](CCCCN)NC(=O)CC[C@H](NC(=O)CC[C@H](NC(=O)CCCCCCCCCCCCCCCCCCC(=O)O)C(=O)O)C(=O)O)C(=O)N[C@@H](CC(N)=O)C(=O)N[C@@H]([C@@H](C)O)C(=O)N[C@@H](C)C(=O)N[C@@H]([C@@H](C)O)C(=O)N1)[C@@H](C)O)C(=O)N1CCC[C@H]1C(=O)N[C@@H](CO)C(=O)N[C@@H](CO)C(=O)N[C@H](C(=O)N[C@@H](CC(N)=O)C(=O)N[C@H](C(=O)NCC(=O)N[C@@H](CO)C(=O)N[C@@H](CC(N)=O)C(=O)N[C@H](C(=O)N1CCC[C@H]1C(N)=O)[C@@H](C)O)C(C)C)[C@@H](C)O` [Example 14] ({C20 diacid-γGlu-γGlu}-KCNTATCATQRLAEFLRHSSPNFGAIPSSTNVGSNTP-NH2; disulfide 2-7), the IC50 was 432 pM in experiment [1] and 196 pM at human amylin receptor. In addition, the “Ratio hCT/hAmylin funct.” value in experiment [2] (setting [4]) worked out at 1.6. Besides, the EC50 in experiment [2] (functional assay, human amylin receptor) was 146 pM; in experiment [3] it was 238 pM. On human amylin receptor, the “Ratio hCT/hAmylin binding” value was found to be 2.2.

Take `CC[C@H](C)[C@H](NC(=O)[C@H](C)NC(=O)CNC(=O)[C@H](Cc1ccccc1)NC(=O)[C@H](CC(N)=O)NC(=O)[C@@H]1CCCN1C(=O)[C@H](CO)NC(=O)[C@H](CO)NC(=O)[C@H](Cc1c[nH]cn1)NC(=O)[C@H](CCCNC(=N)N)NC(=O)[C@H](CC(C)C)NC(=O)[C@H](Cc1ccccc1)NC(=O)[C@H](CCC(=O)O)NC(=O)[C@H](C)NC(=O)[C@H](CC(C)C)NC(=O)[C@H](CCCNC(=N)N)NC(=O)[C@H](CCC(N)=O)NC(=O)[C@@H](NC(=O)[C@H](C)NC(=O)[C@@H]1CSSC[C@H](NC(=O)[C@H](CCCCN)NC(=O)CC[C@H](NC(=O)CCCCCCCCCCCCCCCCCCC(=O)O)C(=O)O)C(=O)N[C@@H](CC(N)=O)C(=O)N[C@@H]([C@@H](C)O)C(=O)N[C@@H](C)C(=O)N[C@@H]([C@@H](C)O)C(=O)N1)[C@@H](C)O)C(=O)N1CCC[C@H]1C(=O)N[C@@H](CO)C(=O)N[C@@H](CO)C(=O)N[C@H](C(=O)N[C@@H](CC(N)=O)C(=O)N[C@H](C(=O)NCC(=O)N[C@@H](CO)C(=O)N[C@@H](CCCNC(=N)N)C(=O)N[C@H](C(=O)N[C@@H](Cc1ccc(O)cc1)C(N)=O)[C@@H](C)O)C(C)C)[C@@H](C)O` [Example 16] ({C20 diacid-γGlu}-KCNTATCATQRLAEFLRHSSPNFGAIPSSTNVGSRTY-NH2; disulfide 2-7): the concentration for half-maximal inhibition (IC50) was 17100 pM in experiment [1] and 894 pM on human amylin receptor. The “Ratio hCT/hAmylin funct.” value in experiment [2] (setting [4]) worked out at 6.1; in experiment [2] (setting [5]) it was 6.1; in experiment [2] (setting [6]) it was 6.1; in experiment [2] (setting [8]), 6.1; in experiment [2] (Table 6k, hCTR funct. EC50 / hAmylin-R funct. EC50), 6.1. Further, the EC50 in experiment [2] (setting [7]) was determined as 363 pM; in experiment [3], 2220 pM.

As to `CC[C@H](C)[C@H](NC(=O)[C@H](C)NC(=O)CNC(=O)[C@H](Cc1ccccc1)NC(=O)[C@H](CC(N)=O)NC(=O)[C@@H]1CCCN1C(=O)[C@H](CO)NC(=O)[C@H](CO)NC(=O)[C@H](Cc1c[nH]cn1)NC(=O)[C@H](CCCNC(=N)N)NC(=O)[C@H](CC(C)C)NC(=O)[C@H](Cc1ccccc1)NC(=O)[C@H](Cc1c[nH]cn1)NC(=O)[C@H](C)NC(=O)[C@H](CC(C)C)NC(=O)[C@H](CCCNC(=N)N)NC(=O)[C@H](CCC(N)=O)NC(=O)[C@@H](NC(=O)[C@H](C)NC(=O)[C@@H]1CSSC[C@H](NC(=O)[C@@H](N)CCCCNC(=O)COCCOCCNC(=O)CCCCCCCCCCCCCCCCCCC(=O)O)C(=O)N[C@@H](CC(N)=O)C(=O)N[C@@H]([C@@H](C)O)C(=O)N[C@@H](C)C(=O)N[C@@H]([C@@H](C)O)C(=O)N1)[C@@H](C)O)C(=O)N1CCC[C@H]1C(=O)N[C@@H](CO)C(=O)N[C@@H](CO)C(=O)N[C@H](C(=O)N[C@@H](CC(N)=O)C(=O)N[C@H](C(=O)NCC(=O)N[C@@H](CO)C(=O)N[C@@H](CC(N)=O)C(=O)N[C@H](C(=O)N[C@@H](Cc1ccc(O)cc1)C(N)=O)[C@@H](C)O)C(C)C)[C@@H](C)O` [Example 90], the IC50 was 2570 pM in experiment [1] and 61 pM on human amylin receptor. For the same compound, the EC50 in experiment [2] (Table 6j, human amylin receptor functional) turned out to be 33 pM.
